# According to patent publication US20040162328A1, “Compounds of the family of 3-alkyl-(4,5-diphenyl-imidazol-1-yl) and their use as soothing agents” (priority 2001, published 2004):
# Where two headings read alike, the source gives them in different places.
# Test system: interleukin-8 secreted by normal human epidermal keratinocytes (NHEKs)
# Test: Inhibition of interleukin-8 secretion by NHEK cells after stimulation with PMA as irritant agent
# Type: cell-based
# Details: 160 nM PMA
# Excerpt: Inhibition of the response of superficial epidermal cells to an irritant agent by assay of the interleukin-8 secreted by normal human epidermal keratinocytes (NHEKS) after stimulation with phorbol 12-myristate 13-acetate (PMA) as irritant agent.
# This study uses the test developed by Wilmer [Wilmer, J. L. et al., J. invest. Dermatol., 102: 915-922 (1994)]. This test allows the evaluation of the antiirritant potential of various molecules, on a human keratinocyte (NHEK) cell line. In this test, an irritant situation is mimicked by exacerbating the production of IL-8 of the NHEKs by adding PMA to the culture medium, IL-8 being involved in initiating the keratinocyte irritation. The antiirritant effect of a molecule is then measured by means of its inhibitory action with respect to this exacerbated production.
# Normal human epidermal keratinocytes (NHEKs) sold by the company Clonetics and distributed in France by the company TEBU are incubated in the presence of 160 nM of PMA for 24 hours at 37° C. In response to the PMA, the production of the chemotactic agent interleukin-8 (IL-8) is measured by enzymatic assay using an assay kit (Elisa D8050) sold by the company R&D. The absorbance values are measured using a microplate reader (MRX/Dynatech) according to the procedures supplied with the assay kit. To evaluate the antiirritant protective effect of the various compounds, the production of the chemotactic marker IL-8 by the human keratinocytes is measured in the presence of various concentrations of the test compound.
# The results are expressed as a percentage of the control values after subtracting the background noise and as a percentage of inhibition of these values obtained in the presence of the compounds.
# [1] = Study No. 2 (Comparative Tests), compound at 10 μM, same batch of NHEK cells, 24 hours, read-out: % inhibition of secretion of IL-8
SMILES,inhibition at 10 µM [1] [%],"inhibition at 1 µM (Study No. 1, compound at 1 μM, NHEK, 24 hours at 37° C., read-out: % inhibition of secretion of IL-8 (at 1 μM)) [%]","inhibition at 10 µM (Study No. 1, compound at 10 μM, NHEK, 24 hours at 37° C., read-out: % inhibition of secretion of IL-8 (at 10 μM)) [%]"
"COC(=O)CCCn1cnc(-c2ccccc2)c1-c1ccccc1 [Example 5, methyl (4,5-diphenyl-imidazol)-1-ylpropyl-3-carboxylate]",22,,
"O=C1c2ccccc2C(=O)N1CCCCn1cnc(-c2ccccc2)c1-c1ccccc1 [Example 3, 4-phthalimidebutyl-(4,5-diphenyl-imidazol)-1-yl]",39,,
"c1ccc(-c2ncn(CCN3CCCCC3)c2-c2ccccc2)cc1 [JP 44 029 199, reference compound]",< 10,,
"O=C1c2ccccc2C(=O)N1CCCn1cnc(-c2ccccc2)c1-c1ccccc1 [Example 4, 3-phthalimidepropyl-(4,5-diphenyl-imidazol)-1-yl]",37,,
c1ccc(-c2ncn(CCCN3CCCCC3)c2-c2ccccc2)cc1 [Example 6],41,,
"c1ccc(-c2ncn(CCCN3CCOCC3)c2-c2ccccc2)cc1 [Example 1, 4-[3-(4,5-diphenylimidazol-1-yl)-propyl]morpholine]",35,86,95
"COC(=O)CCCCn1cnc(-c2ccccc2)c1-c1ccccc1 [Example 2, methyl (4,5-diphenyl-imidazole)-1-ylbutyl-4-carboxylate]",10,,
